Laboratory results: PMC8091115, “Redundancy in Aromatic O-Demethylation and Ring-Opening Reactions in Novosphingobium aromaticivorans and Their Impact in the Metabolism of Plant-Derived Phenolics” (Applied and Environmental Microbiology, 2021)

Legend:
LigM = molecular target: T1, LigM (Novosphingobium aromaticivorans, UniProt Q2G4C6); experiment: HPLC-MS substrate depletion and product formation; type: biochemical; details: tetrahydrofolate as methyl acceptor, anaerobic, 30 C, phosphate buffer
T1 construct: gene Saro_2861; full length, N-terminal His8-TEV tag cleaved, from E. coli B834

DesA = molecular target: T2, DesA (Novosphingobium aromaticivorans, UniProt Q2G5N3); experiment: HPLC-MS substrate depletion and product formation; type: biochemical; details: tetrahydrofolate as methyl acceptor, anaerobic, 30 C, phosphate buffer
T2 construct: gene Saro_2404; full length, N-terminal His8-TEV tag cleaved, from E. coli B834; b91 prints Saro_2402 (probable misprint, Saro_2404 everywhere else)
T2 sequence (Q2G5N3 entry or part of it): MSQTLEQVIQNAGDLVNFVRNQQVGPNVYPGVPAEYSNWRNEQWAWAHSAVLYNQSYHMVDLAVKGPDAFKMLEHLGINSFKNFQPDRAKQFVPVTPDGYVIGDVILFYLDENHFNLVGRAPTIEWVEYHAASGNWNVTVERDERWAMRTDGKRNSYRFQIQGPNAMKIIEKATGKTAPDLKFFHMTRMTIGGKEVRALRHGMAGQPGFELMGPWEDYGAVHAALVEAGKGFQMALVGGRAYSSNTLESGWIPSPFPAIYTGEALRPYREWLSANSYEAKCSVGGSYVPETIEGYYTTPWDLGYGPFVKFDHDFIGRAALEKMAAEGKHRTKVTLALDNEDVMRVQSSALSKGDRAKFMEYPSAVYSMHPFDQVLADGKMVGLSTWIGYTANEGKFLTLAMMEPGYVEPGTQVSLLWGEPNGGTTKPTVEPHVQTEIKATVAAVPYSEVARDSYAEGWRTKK

T1 sequence (Q2G4C6 entry or part of it): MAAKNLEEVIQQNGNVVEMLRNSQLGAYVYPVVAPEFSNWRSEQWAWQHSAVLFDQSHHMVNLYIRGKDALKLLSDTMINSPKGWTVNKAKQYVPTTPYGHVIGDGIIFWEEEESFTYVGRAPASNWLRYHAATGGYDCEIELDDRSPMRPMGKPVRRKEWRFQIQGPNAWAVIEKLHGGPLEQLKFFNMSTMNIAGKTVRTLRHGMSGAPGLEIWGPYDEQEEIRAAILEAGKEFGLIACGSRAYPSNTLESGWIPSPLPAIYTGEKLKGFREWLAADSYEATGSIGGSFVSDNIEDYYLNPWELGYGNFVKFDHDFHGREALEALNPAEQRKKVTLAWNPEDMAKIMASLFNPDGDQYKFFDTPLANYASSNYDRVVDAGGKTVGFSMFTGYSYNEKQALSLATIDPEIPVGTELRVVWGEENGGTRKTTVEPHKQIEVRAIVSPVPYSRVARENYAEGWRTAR

Structure (SMILES)	HPLC-MS substrate depletion and product formation (LigM)	HPLC-MS substrate depletion and product formation (DesA)
COc1cc(C(=O)O)ccc1O [vanillic acid]	able to convert 3-MGA into GA and vanillic acid into PCA at comparable rates	demethylated both syringic acid and, somewhat more slowly, vanillic acid
COc1cc(C(=O)O)cc(O)c1O [3-MGA]	LigM protein of N. aromaticivorans was able to convert 3-MGA into GA	–
